Among the data in patent publication US20230096517A1, “GLUTARIMIDE SKELETON-BASED COMPOUNDS AND APPLICATION THEREOF” (SHANGHAITECH UNIVERSITY, priority 2020, published 2023) are IC50 values, retold here.

The subject of one test is MM.1S cells. Briefly: Proliferation inhibition (IC50) in multiple myeloma cells, cell viability with WST/CCK-8 reagent.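 Note: MM.1S B-lymphoblast cells at 15,000 per well in 100 µL serum-containing RPMI1640, experiment run more than three times.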 Particulars: Homo sapiens, MM1.S, 72 h, read-out: IC50 (half inhibitory concentration). Background: Formazan colour is commonly taken as a measure of viable cells.
Method: Multiple myeloma cell line: MM.1S (B lymphoblast), purchased from ATCC (American Type Culture Collection). Culture medium was RPMI1640 supplemented with 10% FBS and 1% Penicillin-Streptomycin. The cells used were identified as correct cells by STR cells and negative for mycoplasma by routine inspections.
IC50 values of the compounds of the present disclosure were measured using Cell Titer Blue, Cell Titer GLO, or WST reagent from Promega Company. Assay details are as follows: Cells were seeded in 100 μL RPMI1640 complete medium containing serum at a density of 15,000 cells/well.
The experiment was repeated more than three times.
For `O=C1CCC(N2Cc3c(NCc4ccc(CCCNC56CC7CC(CC(C7)C5)C6)cc4)cccc3C2=O)C(=O)N1` (stereo not shown) [SIAIS1227077, 3-(4-((4-(3-((adamantan-1-yl)amino)propyl)benzyl)amino)-1-oxoisoindolin-2-yl)piperidine-2,6-dione], the IC50 is 1.93 ± 0.31 nM.
Regarding `O=C1CCC(N2Cc3c(NCCCCCCCNC45CC6CC(CC4C6)C5)cccc3C2=O)C(=O)N1` (stereo not shown) [SIAIS1242071, 3-(4-((7-((hexahydro-2,5-methanopentalen-3a(1H)-yl)amino)heptyl)amino)-1-oxoisoindolin-2-yl)piperidine-2,6-dione], the IC50 was 2.46 nM.
As to `O=C1CCC(N2Cc3c(C#CCCCCCCCNC45CC6CC(CC(C6)C4)C5)cccc3C2=O)C(=O)N1` (stereo not shown) [SIAIS1222047, 3-(4-(9-((adamantan-1-yl)amino)non-1-yn-1-yl)-1-oxoisoindolin-2-yl)piperidine-2,6-dione], the IC50 stood at 13 nM.
Regarding `O=C1CCC(N2Cc3c(OCCCCCCCN4CCCCC4)cccc3C2=O)C(=O)N1` (stereo not shown) [SIAIS1221109, 3-(1-oxo-4-((7-(piperidin-1-yl)heptyl)oxy)isoindolin-2-yl)piperidine-2,6-dione, reference compound], the IC50 was 17.6 nM.
Take `O=C1CCC(N2Cc3c(CCc4ccc(CNCC56CC7CC(CC(C7)C5)C6)cc4)cccc3C2=O)C(=O)N1` (stereo not shown) [SIAIS1222053, 3-(4-(4-((((adamantan-1-yl)methyl)amino)methyl)phenethyl)-1-oxoisoindolin-2-yl)piperidine-2,6-dione]: the IC50 came out at 1.61 nM.
`O=C1CCC(N2Cc3c(OCc4ccc(CNC56CC7CC(CC(C7)C5)C6)cc4)cccc3C2=O)C(=O)N1` (stereo not shown) [SIAIS1228157, 3-(4-((4-(((adamantan-1-yl)amino)methyl)benzyl)oxy)-1-oxoisoindolin-2-yl)piperidine-2,6-dione]: the IC50 came to 0.28 nM.
With `O=C1CCC(N2Cc3c(NCCCCCCCCNC45CC6CC(CC(C6)C4)C5)cccc3C2=O)C(=O)N1` (stereo not shown) [SIAIS1222045, 3-(4-((8-((adamantan-1-yl)amino)octyl)amino)-1-oxoisoindolin-2-yl)piperidine-2,6-dione], the IC50 is 3.78 nM.
As for `O=C1CCC(N2C(=O)c3ccc(NCCCCCCNC45CC6CC(CC(C6)C4)C5)cc3C2=O)C(=O)N1` (stereo not shown) [SIAIS1242067, 5-((6-((adamantan-1-yl)amino)hexyl)amino)-2-(2,6-dioxopiperidin-3-yl)isoindoline-1,3-dione], the IC50 turned out to be 17.7 nM.
As to `O=C1CCC(N2Cc3c(NCc4ccc(CCNC56CC7CC(CC(C7)C5)C6)cc4)cccc3C2=O)C(=O)N1` (stereo not shown) [SIAIS1227027, 3-(4-((4-(2-((adamantan-1-yl)amino)ethyl)benzyl)amino)-1-oxoisoindolin-2-yl)piperidine-2,6-dione], the IC50 amounted to 0.32 ± 0.09 nM.
For `O=C1CCC(N2Cc3c(OCc4ccc(CCNC56CC7CC(CC(C7)C5)C6)cc4)cccc3C2=O)C(=O)N1` (stereo not shown) [SIAIS1241169, 3-(4-((4-(2-((adamantan-1-yl)amino)ethyl)benzyl)oxy)-1-oxoisoindolin-2-yl)piperidine-2,6-dione], the IC50 worked out at 0.123 nM.
Regarding `O=C1CCC(N2Cc3c(CCc4ccc(CNC56CC7CC(CC(C7)C5)C6)cc4)cccc3C2=O)C(=O)N1` (stereo not shown) [SIAIS1222051, 3-(4-(4-(((adamantan-1-yl)amino)methyl)phenethyl)-1-oxoisoindolin-2-yl)piperidine-2,6-dione], the IC50 came out at 4.1 nM.
On the same count and under the same terms, the result for `O=C1CCC(N2Cc3c(NCc4ccc(CNC56CC7CC(CC(C7)C5)C6)cc4)cccc3C2=O)C(=O)N1` (stereo not shown) [SIAIS1222025, 3-(4-((4-(((adamantan-1-yl)amino)methyl)benzyl)amino)-1-oxoisoindolin-2-yl)piperidine-2,6-dione] reads 3.24 nM.
For the compound `O=C1CCC(N2C(=O)c3cccc(OCc4ccc(CCNC56CC7CC(CC(C7)C5)C6)cc4)c3C2=O)C(=O)N1` (stereo not shown) [SIAIS1241167, 4-((4-(2-((adamantan-1-yl)amino)ethyl)benzyl)oxy)-2-(2,6-dioxopiperidin-3-yl)isoindoline-1,3-dione], the IC50 stood at 1.95 nM.
The same measure, in the same setting: the result for `O=C1CCC(N2Cc3c(NCCCCCCCN4CCCCC4)cccc3C2=O)C(=O)N1` (stereo not shown) [SIAIS1220125, 3-(1-oxo-4-((7-(piperidin-1-yl)heptyl)amino)isoindolin-2-yl)piperidine-2,6-dione, reference compound] reads 697 nM; that for `CC1(C)[C@@H]2CC[C@@]1(C)[C@@H](NCCCCCCCOc1cccc3c1CN(C1CCC(=O)NC1=O)C3=O)C2` (stereo partly drawn) [SIAIS1221189, 3-(1-oxo-4-((7-(((1R,2S,4R)-1,7,7-trimethylbicyclo[2.2.1]heptan-2-yl)amino)heptyl)oxy)isoindolin-2-yl)piperidine-2,6-dione], 1.2 nM.
On to `O=C1CCC(N2C(=O)c3cccc(OCCCCCCCN4CCCCC4)c3C2=O)C(=O)N1` (stereo not shown) [SIAIS1221079, 2-(2,6-dioxopiperidin-3-yl)-4-((7-(piperidin-1-yl)heptyl)oxy)isoindoline-1,3-dione, reference compound], for which the IC50 was 65.9 nM.
`CC(NCCCCCCNc1cccc2c1C(=O)N(C1CCC(=O)NC1=O)C2=O)C12CC3CC(CC(C3)C1)C2` (stereo not shown) [SIAIS1222191, 4-((6-((1-(adamantan-1-yl)ethyl)amino)hexyl)amino)-2-(2,6-dioxopiperidin-3-yl)isoindoline-1,3-dione]: the IC50 was 2.22 nM.
Same read-out and setting: the result for `O=C1CCC(N2Cc3c(C#CCCCCCCNC45CC6CC(CC(C6)C4)C5)cccc3C2=O)C(=O)N1` (stereo not shown) [SIAIS1221095, 3-(4-(8-((adamantan-1-yl)amino)oct-1-yn-1-yl)-1-oxoisoindolin-2-yl)piperidine-2,6-dione] reads 2.21 nM.
For the compound `O=C1CCC(N2Cc3c(NCCCCCCNCC45CC6CC(CC(C6)C4)C5)cccc3C2=O)C(=O)N1` (stereo not shown) [SIAIS1222073, 3-(4-((6-(((adamantan-1-yl)methyl)amino)hexyl)amino)-1-oxoisoindolin-2-yl)piperidine-2,6-dione], the IC50 was 1.26 nM.
The same measure, in the same setting: next, `O=C1CCC(N2C(=O)c3cccc(OCCCCCCCNC45CC6CC(CC(C6)C4)C5)c3C2=O)C(=O)N1` (stereo not shown) [SIAIS1221077, 4-((7-((adamantan-1-yl)amino)heptyl)oxy)-2-(2,6-dioxopiperidin-3-yl)isoindoline-1,3-dione]: 5.53 nM.
Still for that read-out and setting: next, `CC1(C)[C@@H]2CC[C@@]1(C)[C@@H](NCc1ccc(CCc3cccc4c3CN(C3CCC(=O)NC3=O)C4=O)cc1)C2` (stereo partly drawn) [SIAIS1222055, 3-(1-oxo-4-(4-((((1R,2S,4R)-1,7,7-trimethylbicyclo[2.2.1]heptan-2-yl)amino)methyl)phenethyl)isoindolin-2-yl)piperidine-2,6-dione]: 0.239 nM; `O=C1CCC(N2C(=O)c3cccc(NCCCCCCCNC4CC5(CCC5)C4)c3C2=O)C(=O)N1` (stereo not shown) [SIAIS1222189, 2-(2,6-dioxopiperidin-3-yl)-4-((7-(spiro[3.3]heptan-2-ylamino)heptyl)amino)isoindoline-1,3-dione]: 0.324 nM.
Consider `CN(CCCCCCCOc1cccc2c1CN(C1CCC(=O)NC1=O)C2=O)C12CC3CC(CC(C3)C1)C2` (stereo not shown) [SIAIS1222181, 3-(4-((7-((adamantan-1-yl)(methyl)amino)heptyl)oxy)-1-oxoisoindolin-2-yl)piperidine-2,6-dione], for which the IC50 was 0.052 nM.
As for `O=C1CCC(N2Cc3c(CCCCCCCNC45CC6CC(CC(C6)C4)C5)cccc3C2=O)C(=O)N1` (stereo not shown) [SIAIS1224041, 3-(4-(7-((adamantan-1-yl)amino)heptyl)-1-oxoisoindolin-2-yl)piperidine-2,6-dione], the IC50 stood at 1.11 nM.
As to `O=C1CCC(N2Cc3c(OCCCCCCCNC4CCCCC4)cccc3C2=O)C(=O)N1` (stereo not shown) [SIAIS1221187, 3-(4-((7-(cyclohexylamino)heptyl)oxy)-1-oxoisoindolin-2-yl)piperidine-2,6-dione], the IC50 was found to be 1.13 nM.
For `O=C1CCC(N2C(=O)c3ccc(NCCCCCNC45CC6CC(CC(C6)C4)C5)cc3C2=O)C(=O)N1` (stereo not shown) [SIAIS1242069, 5-((5-((adamantan-1-yl)amino)pentyl)amino)-2-(2,6-dioxopiperidin-3-yl)isoindoline-1,3-dione], the IC50 was found to be 2.27 nM.
As to `O=C1CCC(N2C(=O)c3cccc(NCCCCCCC(=O)NC45CC6CC(CC(C6)C4)C5)c3C2=O)C(=O)N1` (stereo not shown) [SIAIS1242077, N-(adamantan-1-yl)-7-((2-(2,6-dioxopiperidin-3-yl)-1,3-dioxoisoindolin-4-yl)amino)heptanamide], the IC50 was 0.241 nM.
On the same count and under the same terms, the result for `O=C1CCC(N2C(=O)c3cccc(NCCCCCCCN4CCCCC4)c3C2=O)C(=O)N1` (stereo not shown) [SIAIS1221047, 2-(2,6-dioxopiperidin-3-yl)-4-((7-(piperidin-1-yl)heptyl)amino)isoindoline-1,3-dione, reference compound] reads 0.78 nM.
Consider `O=C1CCC(N2Cc3c(CCCCCCCCNC45CC6CC(CC(C6)C4)C5)cccc3C2=O)C(=O)N1` (stereo not shown) [SIAIS1221105, 3-(4-(8-((adamantan-1-yl)amino)octyl)-1-oxoisoindolin-2-yl)piperidine-2,6-dione], for which the IC50 was 0.044 nM.
As to `O=C1CCC(N2Cc3c(OCCCCCCCNC45CC6CC(CC4C6)C5)cccc3C2=O)C(=O)N1` (stereo not shown) [SIAIS1242043, 3-(4-((7-((hexahydro-2,5-methanopentalen-3a(1H)-yl)amino)heptyl)oxy)-1-oxoisoindolin-2-yl)piperidine-2,6-dione], the IC50 turned out to be 0.069 nM.
For `O=C1CCC(N2Cc3c(CCCCCCCCN4CCCCC4)cccc3C2=O)C(=O)N1` (stereo not shown) [SIAIS1221107, 3-(1-oxo-4-(8-(piperidin-1-yl)octyl)isoindolin-2-yl)piperidine-2,6-dione, reference compound], the IC50 was found to be 3.93 nM.
With `O=C1CCC(N2Cc3c(OCCCCCCC(=O)NC45CC6CC(CC(C6)C4)C5)cccc3C2=O)C(=O)N1` (stereo not shown) [SIAIS1242075, N-(adamantan-1-yl)-7-((2-(2,6-dioxopiperidin-3-yl)-1-oxoisoindolin-4-yl)oxy)heptanamide], the IC50 came to 0.877 nM.

Still in this test, the particulars now being: Homo sapiens, MM1.S, 72 h, read-out: IC50 (half inhibitory concentration), MM.1S multiple myeloma cells, WST reagent, 72 h treatment.
`O=C1CCC(N2Cc3c(OCCCCCCCNC45CC6CC(CC(C6)C4)C5)cccc3C2=O)C(=O)N1` (stereo not shown) [SIAIS1221111, 3-(4-((7-((adamantan-1-yl)amino)heptyl)oxy)-1-oxoisoindolin-2-yl)piperidine-2,6-dione]: the IC50 was approximately 0.09 nM.

Staying with this test, now noted: read-out: IC50 (half inhibitory concentration); MM.1S multiple myeloma cells, WST reagent, 72 h treatment.
For `O=C1CCC(N2Cc3c(OCCCCCCCNC45CC6CC(CC(C6)C4)C5)cccc3C2=O)C(=O)N1` (stereo not shown) [SIAIS1221111, 3-(4-((7-((adamantan-1-yl)amino)heptyl)oxy)-1-oxoisoindolin-2-yl)piperidine-2,6-dione], the IC50 was 0.089 nM.
